The values that follow come from PubChem BioAssay AID1117352.

The source made the active and inactive calls. No rule for the calls is given here.

A word on the IC50: it is the concentration needed to halve the response being measured.

In the test the test system is DLD-1 viability, CellTiter-Glo ATP luminescence. Put plainly: DLD-1 viability decrease, dose response, CellTiter-Glo luminescence, IC50 (AID 1117352). A general note: Cellular ATP, detected with luciferase, serves as a proxy for viable cell number.
For `CCCCCCCCCCCCCC[N+](C)(C)C`, the concentration for half-maximal inhibition (IC50) is 475 nM.
To `OCCN1CCN(CC/C=C2/c3ccccc3Sc3ccc(C(F)(F)F)cc32)CC1` belongs 1470 nM; to `Cc1ccc([N+](=O)[O-])[c]2c1[O][Hg]2`, 1620 nM.
Regarding `CC(=O)[O][Hg][c]1ccccc1`, the IC50 is 736 nM.
To `O=C1[O][Bi][O]c2ccccc21` belongs > 20000 nM (inactive); to `O=C(O)C1(C(=O)O)CCC1.[NH2-].[NH2-].[Pt+2]`, > 20000 nM (inactive).
